US11261186B2, “Biaryl derivative as GPR120 agonist” (LG CHEM, LTD., priority 2014, dated 2022)
pEC50: −log10 of the molar value.

Target: T1, hGPR120 (Homo sapiens, UniProt Q5NUL3)
T1 construct: expressed in transfected cells; host or cells: CHO-K1
T1 sequence (Q5NUL3 1-361): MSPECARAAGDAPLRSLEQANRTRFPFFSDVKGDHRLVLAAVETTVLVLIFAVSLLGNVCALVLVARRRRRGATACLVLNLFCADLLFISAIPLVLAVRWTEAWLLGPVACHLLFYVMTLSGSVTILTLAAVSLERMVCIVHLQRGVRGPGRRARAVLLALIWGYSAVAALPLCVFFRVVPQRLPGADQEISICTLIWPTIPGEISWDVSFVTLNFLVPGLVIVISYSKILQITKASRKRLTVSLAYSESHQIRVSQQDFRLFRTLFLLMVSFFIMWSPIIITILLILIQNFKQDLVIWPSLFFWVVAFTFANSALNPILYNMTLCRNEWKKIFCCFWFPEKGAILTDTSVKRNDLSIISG
Experiment: Measurement of Activity of GPR120 Agonist (Cell-Based Assay), Calcium 5 dye fluorescence
Conditions: CHO-K1 cells expressing Ga16 and hGPR120
Procedure, shortened: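 Fluorescence increase (Ex 485 nm, Em 525 nm) after agonist addition was calculated as relative percent of the 1% DMSO-only signal. Cells were CHO-K1 stably carrying Gα16 plus human GPR120, dye-loaded for 1 h after overnight (18 h) culture.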

| pEC50 | SMILES |
| --- | --- |
| 5.70 to 6.70 | CCN(CCCC(=O)O)c1c(F)cc(-c2cccnc2SC2CCC2)cc1F [Example 224, 4-{[4-(2-cyclobutylsulfanyl-pyridin-3-yl)-2,6-difluoro-phenyl]-ethyl-amino}-butyric acid] |
| > 6.70 | CC(C)Sc1cccc(-c2cc(F)c(OCCCC(=O)O)c(Cl)c2)n1 [Example 404, 4-[2-chloro-6-fluoro-4-(6-isopropylsulfanyl-pyridin-2-yl)-phenoxy]-butyric acid] |
| 5.70 to 6.70 | CN(CCCC(=O)O)c1c(F)cc(-c2ccc(COCC3CC3)o2)cc1F [Example 473, 4-[4-[5-(cyclopropylmethoxymethyl)-2-furyl]-2,6-difluoro-N-methyl-anilino]butanoic acid] |
| > 6.70 | CC(C)Oc1cccc(-c2cc(F)c(N3CCC(CC(=O)O)C3)c(F)c2)n1 (stereo not drawn) [Example 563, {1-[2,6-difluoro-4-(6-isopropoxy-pyridin-2-yl)-phenyl]-pyrrolidin-3-yl}-acetic acid] |
| 5.70 to 6.70 | O=C(O)CCc1ccc2cc(-c3ccccc3Oc3ccccc3)ccc2c1 [Example 142, 3-[6-(2-phenoxy-phenyl)-naphthalen-2-yl]-propanoic acid] |
| > 6.70 | CCOc1cncc(-c2cc(F)c(N3CCC(CC(=O)O)C3)c(F)c2)n1 (stereo not drawn) [Example 585, {1-[4-(6-ethoxy-pyrazin-2-yl)-2,6-difluoro-phenyl]-pyrrolidin-3-yl}-acetic acid] |
| 5.70 to 6.70 | O=C(O)C1CC1COc1c(F)cc(-c2cccc(OCC3CC3)n2)cc1Cl (stereo not drawn) [Example 552, 2-[2-chloro-4-(6-cyclopropylmethoxy-pyridin-2-yl)-6-fluoro-phenoxymethyl]-cyclopropanecarboxylic acid] |
| 5.70 to 6.70 | Cc1cc(OC(C)C)nc(-c2cc(F)c(N3CCC(CC(=O)O)C3)c(F)c2)n1 (stereo not drawn) [Example 587, {1-[2,6-difluoro-4-(4-isopropoxy-6-methyl-pyrimidin-2-yl)-phenyl]-pyrrolidin-3-yl}-acetic acid] |
| > 6.70 | O=C(O)CCCOc1c(F)cc(-c2cncc(OCC3CC3)n2)cc1Cl [Example 431, 4-[2-chloro-4-(6-cyclopropylmethoxy-pyrazin-2-yl)-6-fluoro-phenoxy]-butyric acid] |
| > 6.70 | COc1ccc(-c2cc(F)c(OCCCC(=O)O)c(F)c2)c2c1OC(C)(C)C2 [Example 257, 4-[2,6-difluoro-4-(7-methoxy-2,2-dimethyl-2,3-dihydro-benzofuran-4-yl)-phenoxy]-butyric acid] |
| 5.70 to 6.70 | COCCCOc1ccnc(-c2cc(F)c(N3CCC(CC(=O)O)CC3)c(F)c2)n1 [Example 600, (1-{2,6-difluoro-4-[4-(3-methoxy-propoxy)-pyrimidin-2-yl]-phenyl}-piperidin-4-yl)-acetic acid] |
| > 6.70 | O=C(O)C1CC1CNc1c(F)cc(-c2cccnc2SC2CCCC2)cc1F (stereo not drawn) [Example 210, 2-{[4-(2-cyclopentylsulfanyl-pyridin-3-yl)-2,6-difluoro-phenylamino]-methyl}-cyclopropanecarboxylic acid] |
| > 6.70 | O=C(O)CCCC(F)(F)c1ccc(-c2cccnc2SC2CCC2)cc1 [Example 178, 5-[4-(2-cyclobutylsulfanyl-pyridin-3-yl)-phenyl]-5,5-difluoro-pentanoic acid] |
| > 6.70 | O=C(O)CCCOc1c(F)cc(-c2nccc(OCC3CC3)n2)cc1Cl [Example 428, 4-[2-chloro-4-(4-cyclopropylmethoxy-pyrimidin-2-yl)-6-fluoro-phenoxy]-butyric acid] |
| 5.70 to 6.70 | COc1ccc(Oc2ccnc(-c3cc(F)c(N4CCC(CC(=O)O)CC4)c(F)c3)n2)cc1 [Example 514, 2-[1-[4-[4-(4-methoxyphenoxy)pyrimidin-2-yl]-2,6-difluoro-phenyl]-4-piperidyl]acetic acid] |
| 5.70 to 6.70 | COc1ccc(-c2ccc3c(c2)CCC(CCC(=O)O)S3)c2c1OC(C)(C)C2 (stereo not drawn) [Example 274, 3-[6-(7-methoxy-2,2-dimethyl-2,3-dihydro-benzofuran-4-yl)-thiochroman-2-yl]-propionic acid] |
| 5.70 to 6.70 | O=C(O)CC1CCN(c2c(F)cc(-c3cccc(OCC4CCC4)n3)cc2F)CC1 [Example 308, 2-[1-[4-[6-(cyclobutylmethoxy)-2-pyridyl]-2,6-difluoro-phenyl]-4-piperidyl]acetic acid] |
| > 6.70 | O=C(O)CCCOc1c(F)cc(-n2ccc3ccc(OCC4CC4)cc32)cc1F [Example 474, 4-[4-[6-(cyclopropylmethoxy)indol-1-yl]-2,6-difluoro-phenoxy]butanoic acid] |
| 5.70 to 6.70 | O=C(O)C1CC1CNc1ccc(-c2cccnc2SC2CCCC2)cc1 (stereo not drawn) [Example 211, 2-{[4-(2-cyclopentylsulfanyl-pyridin-3-yl)-phenylamino]-methyl}-cyclopropanecarboxylic acid] |
| 5.70 to 6.70 | O=C(O)CC1CCN(c2c(F)cc(-c3cccc(SC4CCC4)n3)cc2F)CC1 [Example 297, 2-[1-[4-(6-cyclobutylsulfanyl-2-pyridyl)-2,6-difluoro-phenyl]-4-piperidyl]acetic acid] |

More lines, now with the values behind:

| SMILES | pEC50 |
| --- | --- |
| CC(CCCC(=O)O)c1c(F)cc(-c2ccc(Cl)c(OC3CCC3)n2)cc1F (stereo not drawn) [Example 415, 5-[4-(5-chloro-6-cyclobutoxy-pyridin-2-yl)-2,6-difluoro-phenyl]-hexanoic acid] | > 6.70 |
| O=C(O)C1CC1COc1c(F)cc(-c2cc(F)cc(OC3CCC3)c2)cc1F (stereo not drawn) [Example 541, 2-(3′-cyclobutoxy-3,5,5′-trifluoro-biphenyl-4-yloxymethyl)-cyclopropanecarboxylic acid] | > 6.70 |
| Cc1cc(-c2cc(F)c(OCCCC(=O)O)c(Cl)c2)nc(OC2CCC2)n1 [Example 392, 4-[2-chloro-4-[2-(cyclobutoxy)-6-methyl-pyrimidin-4-yl]-6-fluoro-phenoxy]butanoic acid] | > 6.70 |
| CC(C)(CCCC(=O)O)c1ccc(-c2cccnc2OC2CCCC2)cc1F [Example 161, 5-[4-(2-cyclopentyloxy-pyridin-3-yl)-2-fluoro-phenyl]-5-methyl-hexanoic acid] | 5.70 to 6.70 |
| O=C(O)CC1CCN(c2c(F)cc(-c3ncc(F)c(OC4CCC4)n3)cc2F)C1 (stereo not drawn) [Example 592, {1-[4-(4-cyclobutoxy-5-fluoro-pyrimidin-2-yl)-2,6-difluoro-phenyl]-pyrrolidin-3-yl}-acetic acid] | 5.70 to 6.70 |
| CC(CCCC(=O)O)c1c(F)cc(-c2cccc(OC3CCCC3)n2)cc1F (stereo not drawn) [Example 56, 5-[4-(6-cyclopentoxy-2-pyridyl)-2,6-difluoro-phenyl]hexanoic acid] | > 6.70 |
| CN(CCCC(=O)O)c1c(F)cc(-c2nccc(OC3CCC3)n2)cc1F [Example 485, 4-[4-[4-(cyclobutoxy)pyrimidin-2-yl]-2,6-difluoro-N-methyl-anilino]butanoic acid] | > 6.70 |
| CC(C)Sc1ncccc1-c1ccc2c(c1)CCC(CCC(=O)O)O2 (stereo not drawn) [Example 7, 3-[6-(2-isopropylsulfanyl-pyridin-3-yl)-chroman-2-yl]-propionic acid] | > 6.70 |
| CC(C)(CCCC(=O)O)c1ccc(-c2cccnc2SC2CCC2)cc1 [Example 165, 5-[4-(2-cyclobutylsulfanyl-pyridin-3-yl)-phenyl]-5-methyl-hexanoic acid] | > 6.70 |
| O=C(O)CCCOc1c(F)cc(-c2cc(F)cc(OC3CCC3)c2)cc1F [Example 528, 4-(5′-cyclobutoxy-3,5,3′-trifluoro-biphenyl-4-yloxy)-butyric acid] | > 6.70 |
| CC(C)Oc1ncccc1-c1cc(F)c(N2CCC(CC(=O)O)CC2)c(F)c1 [Example 119, 2-[1-[2,6-difluoro-4-(2-isopropoxy-3-pyridyl)phenyl]-4-piperidyl]acetic acid] | 5.70 to 6.70 |
| CCCCOc1csc(-c2cc(F)c(N3CCC(CC(=O)O)CC3)c(F)c2)n1 [Example 380, {1-[4-(4-butoxy-thiazol-2-yl)-2,6-difluoro-phenyl]-piperidin-4-yl}acetic acid] | 5.70 to 6.70 |
| O=C(O)CCCOc1c(F)cc(-c2cc(OC3CCC3)cc(Cl)n2)cc1F [Example 393, 4-[4-[6-chloro-4-(cyclobutoxy)-2-pyridyl]-2,6-difluoro-phenoxy]butanoic acid] | > 6.70 |
| Cc1cc(OCC(C)C)nc(-c2cc(F)c(N3CCC(CC(=O)O)CC3)c(F)c2)n1 [Example 352, 2-[1-[2,6-difluoro-4-(4-isobutoxy-6-methyl-pyrimidin-2-yl)phenyl]-4-piperidyl]acetic acid] | 5.70 to 6.70 |
| O=C(O)CCCC(F)(F)c1ccc(-c2cccc(OC3CCC3)n2)cc1 [Example 186, 5-[4-(6-cyclobutoxy-pyridin-2-yl)-phenyl]-5,5-difluoro-pentanoic acid] | > 6.70 |
| Oc1cc(COc2c(F)cc(-c3cccnc3OC3CCCC3)cc2F)on1 [Example 67, 5-[[4-[2-(cyclopentoxy)-3-pyridyl]-2,6-difluoro-phenoxy]methyl]isoxazol-3-ol] | > 6.70 |
| O=C(O)CCCOc1c(F)cc(-c2cc(OC3CCC3)cc(Cl)n2)cc1Cl [Example 424, 4-[2-chloro-4-(6-chloro-4-cyclobutoxy-pyridin-2-yl)-6-fluoro-phenoxy]-butyric acid] | > 6.70 |
| O=C(O)CCCOc1c(F)cc(-n2ccc3ccc(OC4CCC4)cc32)cc1F [Example 476, 4-[4-[6-(cyclobutoxy)indol-1-yl]-2,6-difluoro-phenoxy]butanoic acid] | > 6.70 |
| CC(C)Sc1cccc(-c2cc(F)c(N3CC(CC(=O)O)C3)c(F)c2)n1 [Example 114, 2-[1-[2,6-difluoro-4-(6-isopropylsulfanyl-2-pyridyl)phenyl]azetidin-3-yl]acetic acid] | > 6.70 |
